Measured values published in PubChem BioAssay AID256 (DTP/NCI, 2004).
Several values for one entry are separate records, joined by “and”; a condition that tells them apart may be missing. Equal entries are not always repeated. Inconclusive results and toxic doses are left out. How the source made its calls: active means survival T/C of 150% or more; inactive means T/C below 125% in these data. Starred links: 1 amine or outer side, 2 acyl side, 3 side chain; linkers in the order of their positions; H or OH if unused. Positions of bridges follow the written chain, without caps; N, C: chain ends. Non-standard residues stand in square brackets, D forms with d. Residues, ends and D or L forms follow the SMILES beside them. Chains are numbered I, II in the order given. Actinocin(9to1) = Cc1c2oc3c(C)ccc(C(=O)[*:1])c3nc-2c(C(=O)[*:2])c(N)c1=O; aThr = C[C@H](O)[C@H](N)C(=O)O; NMeV = CN[C@H](C(=O)O)C(C)C; Sar = CNCC(=O)O

System: CD2F1 mice, L1210 leukemia ip, survival T/C
Test: NCI In Vivo Anticancer Drug Screen. Data for tumor model L1210 Leukemia (intraperitoneal) in CD2F1 (CDF1) mice
Details: higher = longer survival
Method in brief: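 Ratio T/C, where T is the treated-group value and C the vehicle-dosed control value, from mice implanted with a transplantable tumor.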

[1] = endpoint: mean survival time, dose: 0.06 mg/kg/injection, schedule: Q01DX009 (ip), vehicle: saline
[2] = endpoint: mean survival time, dose: 100.0 mg/kg/injection, schedule: Q01DX009 (ip), vehicle: saline with Tween-80
[3] = endpoint: mean survival time, dose: 100.0 mg/kg/injection, schedule: Q04DX003 (ip), vehicle: saline with Tween-80
[4] = endpoint: mean survival time, dose: 200.0 mg/kg/injection, schedule: Q01DX009 (ip), vehicle: saline with Tween-80
[5] = endpoint: mean survival time, dose: 200.0 mg/kg/injection, schedule: Q04DX003 (ip), vehicle: saline with Tween-80
[6] = endpoint: mean survival time, dose: 100.0 mg/kg/injection, schedule: Q01DX001 (ip), vehicle: saline
[7] = endpoint: mean survival time, dose: 200.0 mg/kg/injection, schedule: Q01DX001 (ip), vehicle: saline
[8] = endpoint: mean survival time, dose: 400.0 mg/kg/injection, schedule: Q04DX003 (ip), vehicle: saline with Tween-80
[9] = endpoint: mean survival time, dose: 400.0 mg/kg/injection, schedule: Q01DX009 (ip), vehicle: saline with Tween-80
[10] = endpoint: mean survival time, dose: 12.5 mg/kg/injection, schedule: Q01DX009 (ip), vehicle: other
[11] = endpoint: mean survival time, dose: 25.0 mg/kg/injection, schedule: Q01DX009 (ip), vehicle: other
[12] = endpoint: mean survival time, dose: 50.0 mg/kg/injection, schedule: Q01DX009 (ip), vehicle: other
[13] = endpoint: mean survival time, dose: 100.0 mg/kg/injection, schedule: Q01DX009 (ip), vehicle: other
[14] = endpoint: mean survival time, dose: 200.0 mg/kg/injection, schedule: Q01DX009 (ip), vehicle: other

Measured: T/C

Cc1c2oc3c(C)ccc(C(=O)N[C@@H]4C(=O)N[C@H](C(C)C)C(=O)N5CCC[C@H]5C(=O)N(C)CC(=O)N(C)[C@@H](C(C)C)C(=O)O[C@H]4C)c3nc-2c(C(=O)N[C@@H]2C(=O)N[C@H](C(C)C)C(=O)N3CCC[C@H]3C(=O)N(C)CC(=O)N(C)[C@@H](C(C)C)C(=O)O[C@H]2C)c(N)c1=O (I: [aThr][dV]P[Sar][NMeV] / II: [aThr][dV]P[Sar][NMeV]; ester I:1-I:C, II:1-II:C; linker I:N-II:N via Actinocin(9to1))
active: endpoint: mean survival time, dose: 0.1 mg/kg/injection, schedule: Q01DX007 (ip), vehicle: other 162 % of control | endpoint: mean survival time, dose: 0.1 mg/kg/injection, schedule: Q03DX003 (ip), vehicle: other 165 % of control | endpoint: mean survival time, dose: 0.2 mg/kg/injection, schedule: Q04DX003 (ip), vehicle: other 164 % of control | endpoint: median survival time, dose: 200.0 micrograms/kg/injection, schedule: Q01DX009 (ip), vehicle: saline + alcohol 166 % of control
inactive: endpoint: mean survival time, dose: 0.01 mg/kg/injection, schedule: Q04DX003 (ip), vehicle: saline 101 % of control | endpoint: mean survival time, dose: 0.02 mg/kg/injection, schedule: Q04DX003 (ip), vehicle: saline 105 % of control | endpoint: mean survival time, dose: 0.03 mg/kg/injection, schedule: Q04DX003 (ip), vehicle: saline 107 % of control | endpoint: mean survival time, dose: 0.05 mg/kg/injection, schedule: Q04DX003 (ip), vehicle: saline 110 % of control | [1] 99 % of control | endpoint: mean survival time, dose: 0.1 mg/kg/injection, schedule: Q01DX009 (ip), vehicle: other 120 % of control | endpoint: mean survival time, dose: 0.2 mg/kg/injection, schedule: Q01DX009 (ip), vehicle: other 90 % of control | endpoint: mean survival time, dose: 0.2 mg/kg/injection, schedule: Q01DX009 (ip), vehicle: saline 88 % of control | endpoint: mean survival time, dose: 0.4 mg/kg/injection, schedule: Q01DX001 (ip), vehicle: saline 114 % of control and 120 % of control | endpoint: mean survival time, dose: 0.4 mg/kg/injection, schedule: Q03DX003 (ip), vehicle: other 86 % of control | endpoint: mean survival time, dose: 0.6 mg/kg/injection, schedule: Q01DX001 (ip), vehicle: saline 122 % of control | endpoint: mean survival time, dose: 6.25 micrograms/kg/injection, schedule: Q01DX009 (ip), vehicle: saline + alcohol 104 % of control | endpoint: mean survival time, dose: 6.3 micrograms/kg/injection, schedule: Q01DX009 (ip), vehicle: water 106 % of control | endpoint: mean survival time, dose: 12.5 micrograms/kg/injection, schedule: Q01DX009 (ip), vehicle: saline + alcohol 107 % of control | endpoint: mean survival time, dose: 12.5 micrograms/kg/injection, schedule: Q01DX009 (ip), vehicle: water 114 % of control and 112 % of control | endpoint: mean survival time, dose: 25.0 micrograms/kg/injection, schedule: Q01DX009 (ip), vehicle: saline + alcohol 117 % of control | endpoint: mean survival time, dose: 25.0 micrograms/kg/injection, schedule: Q01DX009 (ip), vehicle: water 118 % of control and 120 % of control | endpoint: mean survival time, dose: 50.0 micrograms/kg/injection, schedule: Q01DX009 (ip), vehicle: saline + alcohol 109 % of control | endpoint: mean survival time, dose: 100.0 micrograms/kg/injection, schedule: Q01DX009 (ip), vehicle: water 115 % of control | endpoint: median survival time, dose: 0.07 mg/kg/injection, schedule: Q04DX003 (ip), vehicle: saline 122 % of control | endpoint: median survival time, dose: 0.13 mg/kg/injection, schedule: Q01DX001 (ip), vehicle: saline 115 % of control and 117 % of control and 118 % of control | endpoint: median survival time, dose: 0.25 mg/kg/injection, schedule: Q01DX001 (ip), vehicle: saline 118 % of control and 112 % of control | endpoint: median survival time, dose: 0.33 mg/kg/injection, schedule: Q04DX003 (ip), vehicle: saline 89 % of control | endpoint: median survival time, dose: 0.5 mg/kg/injection, schedule: Q01DX001 (ip), vehicle: saline 122 % of control | endpoint: median survival time, dose: 12.5 micrograms/kg/injection, schedule: Q01DX009 (ip), vehicle: saline + alcohol 113 % of control | endpoint: median survival time, dose: 25.0 micrograms/kg/injection, schedule: Q01DX009 (ip), vehicle: saline + alcohol 117 % of control

O=[N+]([O-])c1ccc(Cl)c(P(=O)(O)c2cc([N+](=O)[O-])ccc2Cl)c1
inactive: endpoint: mean survival time, dose: 50.0 mg/kg/injection, schedule: Q04DX003 (ip), vehicle: saline 100 % of control | endpoint: mean survival time, dose: 100.0 mg/kg/injection, schedule: Q04DX003 (ip), vehicle: saline 101 % of control | endpoint: mean survival time, dose: 200.0 mg/kg/injection, schedule: Q04DX003 (ip), vehicle: saline 100 % of control

COC(=O)C1C2CCCN2OC1(C)CO (centres undefined)
inactive: endpoint: median survival time, dose: 7.5 mg/kg/injection, schedule: Q01DX005 (ip), vehicle: saline 98 % of control | endpoint: median survival time, dose: 15.0 mg/kg/injection, schedule: Q01DX005 (ip), vehicle: saline 101 % of control | endpoint: median survival time, dose: 30.0 mg/kg/injection, schedule: Q01DX005 (ip), vehicle: saline 96 % of control | endpoint: median survival time, dose: 60.0 mg/kg/injection, schedule: Q01DX005 (ip), vehicle: saline 106 % of control | endpoint: median survival time, dose: 120.0 mg/kg/injection, schedule: Q01DX005 (ip), vehicle: saline 104 % of control

O=C(O)c1cccc2c1-c1c(cccc1[N+](=O)[O-])C2
inactive: endpoint: mean survival time, dose: 50.0 mg/kg/injection, schedule: Q01DX009 (ip), vehicle: saline with Tween-80 96 % of control | [2] 97 % of control | [3] 101 % of control | [4] 91 % of control | [5] 100 % of control

O=C(Nc1c(Oc2ccc(Cl)cc2Cl)ccc(Cl)c1S(=O)(=O)O)Nc1c(Oc2ccc(Cl)cc2Cl)ccc(Cl)c1S(=O)(=O)O
inactive: [6] 94 % of control | [7] 93 % of control

Cc1ncc(CO)c(CO)c1O
inactive: endpoint: mean survival time, dose: 100.0 mg/kg/injection, schedule: Q01DX009 (ip), vehicle: saline 100 % of control | endpoint: mean survival time, dose: 200.0 mg/kg/injection, schedule: Q01DX009 (ip), vehicle: saline 94 % of control | endpoint: mean survival time, dose: 400.0 mg/kg/injection, schedule: Q01DX009 (ip), vehicle: saline 95 % of control

COC1OCC(O)C(NC(=O)N(C)N=O)C1O (centres undefined)
active: endpoint: mean survival time, dose: 50.0 mg/kg/injection, schedule: Q01DX009 (ip), vehicle: saline 160 % of control | endpoint: mean survival time, dose: 75.0 mg/kg/injection, schedule: Q01DX009 (ip), vehicle: saline 186 % of control

C=CN1C(=O)NC(C)(CC(C)C)C1=O (centres undefined)
inactive: [3] 94 % of control | [5] 92 % of control | [8] 102 % of control

CCOC(=O)C(C(=O)OCC)C1c2ccccc2C(=O)N(CCN(C)C)c2ccccc21 (centres undefined)
inactive: endpoint: mean survival time, dose: 130.0 mg/kg/injection, schedule: Q01DX001 (ip), vehicle: saline 103 % of control

CCCCOC(=O)CC(=O)OCCCC
inactive: [2] 102 % of control | [3] 101 % of control | [4] 104 % of control | [5] 93 % of control | [9] 96 % of control | [8] 93 % of control

O=c1cccc(Cl)[nH]1
inactive: [2] 102 % of control | [3] 98 % of control | [4] 102 % of control | [5] 102 % of control | [9] 90 % of control | [8] 98 % of control

CC(=O)OC1(C)CC(C)C(=O)C(C(O)CC2CC(=O)NC(=O)C2)C1 (centres undefined)
inactive: endpoint: mean survival time, dose: 0.03 mg/kg/injection, schedule: Q01DX009 (ip), vehicle: saline 103 % of control | endpoint: mean survival time, dose: 0.04 mg/kg/injection, schedule: Q01DX009 (ip), vehicle: saline 94 % of control | [1] 105 % of control and 107 % of control | endpoint: mean survival time, dose: 0.13 mg/kg/injection, schedule: Q01DX009 (ip), vehicle: saline 114 % of control

C=CCOc1ccc(C=O)cc1
inactive: [6] 102 % of control | [7] 102 % of control | endpoint: mean survival time, dose: 400.0 mg/kg/injection, schedule: Q01DX001 (ip), vehicle: saline 97 % of control

O=C(CCN1CCCCC1)c1ccc(C(F)(F)F)cc1
inactive: endpoint: mean survival time, dose: 3.13 mg/kg/injection, schedule: Q01DX009 (ip), vehicle: water 90 % of control | endpoint: mean survival time, dose: 6.25 mg/kg/injection, schedule: Q01DX009 (ip), vehicle: water 90 % of control

O=C1CC2OCCC3=CN4CCC56c7ccccc7N1C5C2C3CC46 (centres undefined)
inactive: endpoint: mean survival time, dose: 1.25 mg/kg/injection, schedule: Q01DX001 (ip), vehicle: other 116 % of control | endpoint: mean survival time, dose: 2.5 mg/kg/injection, schedule: Q01DX001 (ip), vehicle: other 108 % of control

CCOc1nnc(-c2ccccc2)o1
inactive: [10] 92 % of control | [11] 96 % of control | [12] 97 % of control | [13] 100 % of control | [14] 97 % of control

COc1cccc2c1C(=O)c1c(O)c3c(c(O)c1C2=O)C[C@](O)(C(=O)CO)CC3OC1CC(N)C(OC2CCCCO2)C(C)O1 (some centres undefined)
inactive: endpoint: median survival time, dose: 6.0 mg/kg/injection, schedule: Q01DX009 (ip), vehicle: water 91 % of control
123 % of control and 227 % of control: endpoint: median survival time, dose: 3.0 mg/kg/injection, schedule: Q01DX009 (ip), vehicle: water

COC(=O)NC(=O)c1cn[nH]n1
inactive: [10] 98 % of control | [11] 103 % of control | [12] 97 % of control | [13] 101 % of control | [14] 95 % of control
